SMILES strings stand for the structures. Some results are limits rather than exact numbers.

In patent US7473688B2, “Indolobenzazepine HCV NS5B inhibitors” (Bristol-Myers Squibb Company, priority 2005, dated 2009) one finds IC50 data, which are given here for 44 compounds.

T1 sequence (Q9WMX2 2420-2992): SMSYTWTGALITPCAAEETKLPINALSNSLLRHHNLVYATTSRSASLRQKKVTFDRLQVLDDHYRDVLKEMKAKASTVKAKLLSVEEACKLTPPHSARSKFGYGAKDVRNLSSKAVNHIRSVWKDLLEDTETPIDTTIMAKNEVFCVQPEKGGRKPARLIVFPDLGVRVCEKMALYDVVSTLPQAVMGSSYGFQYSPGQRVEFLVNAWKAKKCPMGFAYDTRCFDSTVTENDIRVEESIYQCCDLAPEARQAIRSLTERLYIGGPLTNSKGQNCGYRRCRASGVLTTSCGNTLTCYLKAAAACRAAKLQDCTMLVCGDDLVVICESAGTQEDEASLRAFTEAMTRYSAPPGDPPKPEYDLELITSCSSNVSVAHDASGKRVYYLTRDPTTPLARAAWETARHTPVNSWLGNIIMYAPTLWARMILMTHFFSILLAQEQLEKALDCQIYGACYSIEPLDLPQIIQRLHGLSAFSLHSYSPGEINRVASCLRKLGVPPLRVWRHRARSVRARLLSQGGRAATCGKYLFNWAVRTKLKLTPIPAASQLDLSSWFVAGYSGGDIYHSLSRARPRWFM

The first assay addresses T1, HCV NS5B (Hepatitis C virus genotype 1b, UniProt Q9WMX2).
T1 construct: The protein was expressed with an 18 amino acid C-terminal truncation to enhance the solubility; made in house; host or cells: E. coli BL21 (DE3), pET21a
Nature of the assay: HCV NS5B RdRp enzyme assay (preincubation protocol). Format: biochemical. The settings on record: Table 1a, read-out: IC50*. As to the method:
HCV NS5B RdRp cloning, expression, and purification. The cDNA encoding the NS5B protein of HCV, genotype 1b, was cloned into the pET21a expression vector. The protein was expressed with an 18 amino acid C-terminal truncation to enhance the solubility. The E. coli competent cell line BL21 (DE3) was used for expression of the protein. Cultures were grown at 37° C. for ˜4 hours until the cultures reached an optical density of 2.0 at 600 nm. The cultures were cooled to 20° C. and induced with 1 mM IPTG. Fresh ampicillin was added to a final concentration of 50 μg/ml and the cells were grown overnight at 20° C.
Cell pellets (3L) were lysed for purification to yield 15-24 mgs of purified NS5B. The lysis buffer consisted of 20 mM Tris-HCl, pH 7.4, 500 mM NaCl, 0.5% triton X-100, 1 mM DTT, 1 mM EDTA, 20% glycerol, 0.5 mg/ml lysozyme, 10 mM MgCl2, 15 ug/ml deoxyribonuclease I, and Complete TM protease inhibitor tablets (Roche). After addition of the lysis buffer, frozen cell pellets were resuspended using a tissue homogenizer. To reduce the viscosity of the sample, aliquots of the lysate were sonicated on ice using a microtip attached to a Branson sonicator. The sonicated lysate was centrifuged at 100,000×g for 1 hr at 4° C. and filtered through a 0.2 μm filter unit (Corning).
The protein was purified using three sequential chromatography steps: Heparin sepharose CL-6B, polyU sepharose 4B, and Hitrap SP sepharose (Pharmacia). The chromatography buffers were identical to the lysis buffer but contained no lysozyme, deoxyribonuclease I, MgCl2 or protease inhibitor and the NaCl concentration of the buffer was adjusted according to the requirements for charging the protein onto the column. Each column was eluted with a NaCl gradient which varied in length from 5-50 column volumes depending on the column type. After the final chromatography step, the resulting purity of the enzyme is >90% based on SDS-PAGE analysis. The enzyme was aliquoted and stored at −80° C.
Standard HCV NS5B RdRp enzyme assay. HCV RdRp genotype 1b assays were run in a final volume of 60 μl in 96 well plates (Costar 3912). The assay buffer is composed of 20 mM Hepes, pH 7.5, 2.5 mM KCl, 2.5 mM MgCl2, 1 mM DTT, 1.6 U RNAse inhibitor (Promega N2515), 0.1 mg/ml BSA (Promega R3961), and 2% glycerol. All compounds were serially diluted (3-fold) in DMSO and diluted further in water such that the final concentration of DMSO in the assay was 2%. HCV RdRp genotype 1b enzyme was used at a final concentration of 28 nM. A polyA template was used at 6 nM, and a biotinylated oligo-dT12 primer was used at 180 nM final concentration. Template was obtained commercially (Amersham 27-4110). Biotinylated primer was prepared by Sigma Genosys. 3H-UTP was used at 0.6 μCi (0.29 μM total UTP). Reactions were initiated by the addition of enzyme, incubated at 30° C. for 60 min, and stopped by adding […] of 50 mM EDTA containing SPA beads (4 μg/μl, Amersham RPNQ 0007). Plates were read on a Packard Top Count NXT after >1 hr incubation at room temperature.
Modified HCV NS5B RdRp enzyme assay. A modified enzyme assay was performed essentially as described for the standard enzyme assay except for the following: The biotinylated oligo dT12 primer was precaptured on streptavidin-coated SPA beads by mixing primer and beads in assay buffer and incubating at room temperature for one hour. Unbound primer was removed after centrifugation. The primer-bound beads were resuspended in 20 mM Hepes buffer, pH 7.5 and used in the assay at final concentrations of […] primer and 0.67 μg/μl beads. Order of addition in the assay: Enzyme (14 nM) was added to diluted compound followed by the addition of a mixture of template (0.2 nM), 3H-UTP (0.6 μCi, 0.29 μM), and primer-bound beads, to initiate the reaction; concentrations given are final. Reactions were allowed to proceed for 4 hours at 30° C.
IC50 values for compounds were determined using seven different [I]. […]
As a reminder, the IC50 is the concentration at which inhibition is half-maximal. Take `O=C(NC[C@@H]1CCCO1)c1ccc2c(C3CCCCC3)c3n(c2c1)CC(C(=O)N1CCC(N2CCOCC2)CC1)=Cc1ccccc1-3`: the IC50 was in the range of 10 to 1000 nM.

In the case of `COc1ccc2c(c1)C=C(C(=O)N1CCN(c3ncncn3)CC1)Cn1c-2c(C2CCCCC2)c2ccc(C(=O)NS(=O)(=O)N(C)C)cc21`, the IC50 lay in the range of 10 to 1000 nM.

As for `COc1ccc2c(c1)C=C(C(=O)N1CCOC(c3ccccc3)C1)Cn1c-2c(C2CCCCC2)c2ccc(C(=O)NS(=O)(=O)N(C)C)cc21` (centres unmarked), the IC50 was in the range of 10 to 1000 nM.

In the case of `O=C(NCc1cn2ccccc2n1)c1ccc2c(C3CCCCC3)c3n(c2c1)CC(C(=O)N1CCC(N2CCOCC2)CC1)=Cc1ccccc1-3`, the IC50 fell in the range of 10 to 1000 nM.

As for `COC(=O)c1ccc2c(C3CCCCC3)c3n(c2c1)CC(C(=O)NCc1ncco1)Cc1cc(OC)ccc1-3` (centres unmarked), the IC50 is 10 to 1000 nM.

Regarding `COc1ccc2c(c1)C[C@@H](C(=O)N1CCC[C@H](OC(C)=O)C1)Cn1c-2c(C2CCCCC2)c2ccc(C(=O)NS(=O)(=O)N(C)C)cc21` [drawing 326], the IC50 is 10 to 1000 nM.

`CN(C)S(=O)(=O)NC(=O)c1ccc2c(C3CCCCC3)c3n(c2c1)C[C@H](NC(=O)N1CCOCC1)Cc1ccccc1-3`: the IC50 was 10 to 1000 nM.

For the compound `O=C(NCc1ccccn1)c1ccc2c(C3CCCCC3)c3n(c2c1)CC(C(=O)N1CCC(N2CCOCC2)CC1)=Cc1ccccc1-3`, the IC50 lay in the range of 10 to 1000 nM.

Turning to `C[C@@H]1CN(C(=O)C2=Cc3ccccc3-c3c(C4CCCCC4)c4ccc(C(=O)NS(=O)(=O)OCC(C)(C)C)cc4n3C2)C[C@H](C)O1`, the IC50 fell in the range of 10 to 1000 nM.

As for `CN(C)C(=O)CN(C)C(=O)C1=Cc2ccccc2-c2c(C3CCCCC3)c3ccc(C(=O)NS(=O)(=O)N(C)C)cc3n2C1`, the IC50 was in the range of 10 to 1000 nM.

As for `C=CCNC(=O)N1CCN(C(=O)C2=Cc3ccccc3-c3c(C4CCCCC4)c4ccc(C(=O)NS(=O)(=O)N(C)C)cc4n3C2)CC1`, the IC50 was in the range of 10 to 1000 nM.

For the compound `O=C(NCc1nc2ccccc2[nH]1)c1ccc2c(C3CCCCC3)c3n(c2c1)CC(C(=O)N1CCC(N2CCOCC2)CC1)=Cc1ccccc1-3`, the IC50 was 10 to 1000 nM.

Take `COc1ccc2c(c1)C[C@@H](C(=O)N1CCC[C@H](OC(C)=O)C1)Cn1c-2c(C2CCCCC2)c2ccc(C(=O)NS(=O)(=O)N(C)C)cc21` [drawing 320]: the IC50 was in the range of 10 to 1000 nM.

Take `COc1ccc2c(c1)C=C(C(=O)N1CCN(C(=O)c3ccco3)CC1)Cn1c-2c(C2CCCCC2)c2ccc(C(=O)NS(=O)(=O)N(C)C)cc21`: the IC50 lay in the range of 10 to 1000 nM.

With `COc1ccc2c(c1)C=C(C(=O)N1C[C@@H](C)N(C)[C@@H](C)C1)Cn1c-2c(C2CCCCC2)c2ccc(C(=O)NS(=O)(=O)N(C)C)cc21`, the IC50 was 10 to 1000 nM.

For `O=C(NC[C@H]1CCCO1)c1ccc2c(C3CCCCC3)c3n(c2c1)CC(C(=O)N1CCC(N2CCOCC2)CC1)=Cc1ccccc1-3`, the IC50 fell in the range of 10 to 1000 nM.

Turning to `COc1ccc2c(c1)C=C(C(=O)N1CCC(C(=O)N(C)C)CC1)Cn1c-2c(C2CCCCC2)c2ccc(C(=O)NS(=O)(=O)N(C)C)cc21`, the IC50 lay in the range of 10 to 1000 nM.

Take `CN(C)C(=O)CNC(=O)c1ccc2c(C3CCCCC3)c3n(c2c1)CC(C(=O)N1CCC(N2CCOCC2)CC1)=Cc1ccccc1-3`: the IC50 fell in the range of 10 to 1000 nM.

On to `COCCNC(=O)CN(C)C(=O)C1Cc2cc(OC)ccc2-c2c(C3CCCCC3)c3ccc(C(=O)NS(=O)(=O)N(C)C)cc3n2C1` (centres unmarked), for which the IC50 fell in the range of 10 to 1000 nM.

On to `C[C@@H]1CN(C(=O)C2=Cc3c(ccc4c3OCO4)-c3c(C4CCCCC4)c4ccc(C(=O)O)cc4n3C2)C[C@H](C)O1`, for which the IC50 was 10 to 1000 nM.

As for `COc1ccc2c(c1)C=C(C(=O)N1CCOC(CN3CCCC3)C1)Cn1c-2c(C2CCCCC2)c2ccc(C(=O)NS(=O)(=O)N(C)C)cc21` (centres unmarked), the IC50 is 10 to 1000 nM.

In the case of `COc1ccc2c(c1)CC(N(C)C(=O)N1C[C@@H](C)O[C@@H](C)C1)Cn1c-2c(C2CCCCC2)c2ccc(C(=O)NS(=O)(=O)N(C)C)cc21` (some centres unmarked), the IC50 was 10 to 1000 nM.

In the case of `COc1ccc2c(c1)C=C(C(=O)N1CCC[C@H]1C(=O)N(C)C)Cn1c-2c(C2CCCCC2)c2ccc(C(=O)NS(=O)(=O)N(C)C)cc21`, the IC50 was 10 to 1000 nM.

Turning to `O=C(NCc1nnn[nH]1)c1ccc2c(C3CCCCC3)c3n(c2c1)CC(C(=O)N1CCC(N2CCOCC2)CC1)=Cc1ccccc1-3`, the IC50 lay in the range of 10 to 1000 nM.

With `COC(=O)c1ccc2c(C3CCCCC3)c3n(c2c1)CC(NC(=O)NC1CCN(C(=O)C(F)(F)F)CC1)Cc1ccccc1-3` (centres unmarked), the IC50 was greater than 1000 nM.

As for `COC(=O)c1ccc2c(C3CCCCC3)c3n(c2c1)CC(NC(=O)C1CCOCC1)Cc1cc(OC)ccc1-3` (centres unmarked), the IC50 was 10 to 1000 nM.

With `O=C(NS(=O)(=O)N1CCOCC1)c1ccc2c(C3CCCCC3)c3n(c2c1)CC(C(=O)N1CCN(CC(F)(F)F)CC1)=Cc1ccccc1-3`, the IC50 fell in the range of 10 to 1000 nM.

Regarding `COc1ccc2c(c1)CC(C(=O)N(C)CC1CCCO1)Cn1c-2c(C2CCCCC2)c2ccc(C(=O)NS(=O)(=O)N(C)C)cc21` (centres unmarked), the IC50 lay in the range of 10 to 1000 nM.

Take `Cc1cnc(CNC(=O)c2ccc3c(C4CCCCC4)c4n(c3c2)CC(C(=O)N2CCC(N3CCOCC3)CC2)=Cc2ccccc2-4)cn1`: the IC50 was 10 to 1000 nM.

`CCN(CC)C(=O)CN(C)C(=O)C1Cc2cc(OC)ccc2-c2c(C3CCCCC3)c3ccc(C(=O)NS(=O)(=O)N(C)C)cc3n2C1` (centres unmarked): the IC50 was 10 to 1000 nM.

`COc1ccc2c(c1)C=C(C(=O)N1CCC(Oc3ncccn3)CC1)Cn1c-2c(C2CCCCC2)c2ccc(C(=O)NS(=O)(=O)N(C)C)cc21`: the IC50 was 10 to 1000 nM.

As to `COc1ccc2c(c1)CC(C(=O)N(C)CC(=O)N(C)C)Cn1c-2c(C2CCCCC2)c2ccc(C(=O)NS(=O)(=O)N(C)C)cc21` (centres unmarked), the IC50 is 10 to 1000 nM.

In the case of `COc1ccc2c(c1)C=C(C(=O)N1C[C@@H](C)O[C@@H](C)C1)Cn1c-2c(C2CCCCC2)c2ccc(C(=O)NS(=O)(=O)N3CCN(C)CC3)cc21`, the IC50 was 10 to 1000 nM.

In the case of `COc1ccc2c(c1)C=C(C(=O)N1CCN(CC(F)(F)F)CC1)Cn1c-2c(C2CCCCC2)c2ccc(C(=O)NS(=O)(=O)N3CCOCC3)cc21`, the IC50 lay within 10 to 1000 nM.

Turning to `COC(=O)c1ccc2c(C3CCCCC3)c3n(c2c1)CC(C(=O)NCC1CCCO1)Cc1cc(OC)ccc1-3` (centres unmarked), the IC50 was greater than 1000 nM.

Consider `CN(C)C(=O)C1CCN(C(=O)C2=Cc3ccccc3-c3c(C4CCCCC4)c4ccc(C(=O)NS(=O)(=O)N(C)C)cc4n3C2)CC1`, for which the IC50 is 10 to 1000 nM.

Regarding `COc1ccc2c(c1)C=C(C(=O)N1CCn3cnnc3C1)Cn1c-2c(C2CCCCC2)c2ccc(C(=O)NS(=O)(=O)N(C)C)cc21`, the IC50 was 10 to 1000 nM.

For `COC(=O)c1ccc2c(C3CCCCC3)c3n(c2c1)CC(C(=O)N1C[C@@H](C)N(C)[C@@H](C)C1)=Cc1cc(F)ccc1-3`, the half-inhibitory concentration (IC50) fell in the range of 10 to 1000 nM.

In the case of `COCCNC(=O)CN(C)C(=O)C1=Cc2cc(OC)ccc2-c2c(C3CCCCC3)c3ccc(C(=O)NS(=O)(=O)N(C)C)cc3n2C1`, the IC50 lay within 10 to 1000 nM.

As to `C[C@@H]1CN(C(=O)C2=Cc3cc(F)ccc3-c3c(C4CCCCC4)c4ccc(C(=O)O)cc4n3C2)C[C@H](C)N1C`, the IC50 fell in the range of 10 to 1000 nM.

Regarding `CN(C)S(=O)(=O)NC(=O)c1ccc2c(C3CCCCC3)c3n(c2c1)C[C@@H](NC(=O)N1CCOCC1)Cc1ccccc1-3`, the IC50 is 10 to 1000 nM.

On to `COC(=O)c1ccc2c(C3CCCCC3)c3n(c2c1)CC(NC(=O)OC(C)(C)C)Cc1ccccc1-3` (centres unmarked), for which the IC50 is 10 to 1000 nM.

The same assay, now with this note: Table 1b, read-out: IC50*.
Take `COC(=O)c1ccc2c(C3CCCCC3)c3n(c2c1)CC(C(=O)N1CCOC(CO)C1)=Cc1cc(F)ccc1-3` (centres unmarked): the IC50 fell in the range of 20 to 1000 nM.

For the compound `COc1ccc2c(c1)C=C(C(=O)N1C[C@H](CO)[C@@H](O)[C@H](O)C1)Cn1c-2c(C2CCCCC2)c2ccc(C(=O)NS(=O)(=O)N(C)C)cc21`, the IC50 was less than 20 nM.
